Measured values published in patent US20260199236A1, “PERFLUORINATED MICELLES AND MEDICAL USES THEREOF” (COMMISSARIAT A L'ENERGIE ATOMIQUE ET AUX ENERGIES …, priority 2022, published 2026).

What was measured:
[1] = Oxygen release from O2-saturated colloid injected into degassed water; assay type: physicochemical; details: 200 μL of 7.6 mM surfactant colloid into degassed water
Description: To this end, a small volume of oxygen-saturated micelle colloid was injected with variable PFTD-PEG concentrations into a large volume of degassed water and the release of oxygen was monitored by continuous electrochemical monitoring over time (FIG. 3A). From this set of experiments, a clear correlation between the micelle concentration and the amount of released oxygen was observed. In fact, 15 min after addition of 200 μL of a 5, 10, or 20 mg mL^−1 PFTD-PEG colloid to 100 mL of degassed water, the oxygen concentration reached values of 2.9, 4.3, and 5.6 μM, respectively. As a reference, the oxygen concentration reached only 1.1 μM when the same volume of oxygen-saturated water was added instead of the micelle colloid. The effect of the fluorinated PFTD-PEG micelles on oxygen delivery was compared to that of micelles obtained from commonly used amphiphiles, namely sodium dodecyl sulfate (SDS) and Triton X100.

[2] = Oxygen content decay of O2-saturated dispersions on ambient air equilibration; details: first-order fit, SDS 9 mM, Triton X-100 3.8 mM; for Release rate (oxygen): PFTD-PEG 3.8 mM
Source text: Another commonly used method consists in measuring the rate of decrease of the oxygen concentration of a given micellar solution from O2-saturation to equilibrium with ambient air. In the case of perfluorinated micelles, any observed difference in deoxygenation rate can be directly related the diffusion of O2 from the perfluorinated core to the aqueous medium while oxygen dissolved in the saturated dispersant (i.e. water) escapes to the atmosphere.
To assess the dioxygen release capacity of PFTD-PEG micelles, colloids (4 mL, c=3.8 mM and 7.6 mM) were pre-saturated with dioxygen under agitation in a sealed round-bottom flask. After saturation, agitation was stopped and the PFTD-PEG micellar suspension was left to equilibrate with ambient air. Evolution of dioxygen concentration in the medium over time was recorded using a dissolved dioxygen sensor.
In this equation, y0 corresponds to the value of y at t=0 s while A corresponds to the amplitude of the curve such that A=Plateau−y0. This model provides essential parameters such as the oxygen half-life and the oxygen release rate from the different micellar suspensions.

Compound: CCCCCCCCCCCCOS(=O)(=O)[O-].[Na+] [SDS, sodium dodecyl sulfate]
- oxygen concentration [1]: 2.7 mM
- Release rate (oxygen) [2]: 2.61 ± 0.03 10^−4 s^−1

Compound: Triton X-100
- oxygen concentration [1]: 3.6 mM
- Release rate (oxygen) [2]: 2.49 ± 0.04 10^−4 s^−1
- t1/2 (oxygen half-life) ([2]; PFTD-PEG 3.8 mM (10 mg mL^−1)): 46.422 ± 0.832 min
